Measured values as given in patent publication US20140088085A1, “Substituted Benzoazepines As Toll-Like Receptor Modulators” (ARRAY BIOPHARMA, INC, priority 2011, published 2014).
Read-outs that look alike come from different tables or passages of the source.

Target: T1, hTLR8 (Homo sapiens, UniProt Q9NR97)
T1 construct: host or cells: HEK293 cells stably transfected with hTLR8
T1 sequence (Q9NR97 27-1041): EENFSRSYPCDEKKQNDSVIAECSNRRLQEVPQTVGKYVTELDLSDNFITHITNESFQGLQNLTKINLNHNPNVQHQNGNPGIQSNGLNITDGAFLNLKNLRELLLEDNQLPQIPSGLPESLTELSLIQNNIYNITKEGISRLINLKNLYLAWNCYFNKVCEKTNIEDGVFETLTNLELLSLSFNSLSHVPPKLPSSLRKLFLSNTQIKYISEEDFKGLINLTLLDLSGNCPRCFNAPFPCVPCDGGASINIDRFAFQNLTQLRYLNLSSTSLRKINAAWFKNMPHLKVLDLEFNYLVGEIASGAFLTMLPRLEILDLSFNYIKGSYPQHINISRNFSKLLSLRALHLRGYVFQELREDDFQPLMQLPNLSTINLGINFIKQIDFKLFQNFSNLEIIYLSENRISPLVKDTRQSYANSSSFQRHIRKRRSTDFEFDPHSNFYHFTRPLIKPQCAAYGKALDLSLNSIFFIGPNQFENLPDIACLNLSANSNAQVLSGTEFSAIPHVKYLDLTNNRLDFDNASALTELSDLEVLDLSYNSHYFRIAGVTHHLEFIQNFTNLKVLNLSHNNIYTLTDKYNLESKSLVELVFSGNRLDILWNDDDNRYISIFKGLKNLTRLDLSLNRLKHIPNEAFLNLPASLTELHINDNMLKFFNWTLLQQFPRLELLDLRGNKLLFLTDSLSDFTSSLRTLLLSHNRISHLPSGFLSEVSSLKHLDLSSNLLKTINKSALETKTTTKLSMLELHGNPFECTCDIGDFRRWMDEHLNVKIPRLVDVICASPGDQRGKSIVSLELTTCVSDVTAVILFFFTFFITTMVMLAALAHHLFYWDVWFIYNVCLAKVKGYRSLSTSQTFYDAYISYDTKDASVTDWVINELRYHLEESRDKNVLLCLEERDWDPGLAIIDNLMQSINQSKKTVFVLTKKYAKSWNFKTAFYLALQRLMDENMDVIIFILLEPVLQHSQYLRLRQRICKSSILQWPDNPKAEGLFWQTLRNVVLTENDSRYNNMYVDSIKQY
Assay: HEK-293 hTLR8 transfectant NF-κB SEAP reporter antagonist assay
Assay type: cell-based
Conditions: for inhibition at 25 µM: HEK293, TLR8 antagonist activity at 25 μM (in some cases assessed at lower concentrations)
Procedure: The HEK-293 hTLR transfectant assay employs HEK293 cells stably transfected with various hTLRs and transiently co-transfected with a plasmid containing an NF-κB driven secreted embryonic alkaline phosphate (SEAP) reporter gene. Stimulation of TLRs activates their downstream signaling pathways and induces nuclear translocation of the transcription factor NF-κB. Reporter gene activity is then measured using a spectrophotometric assay.
For the TLR8 antagonist assays, cells are transiently transfected with the reporter gene on Day 1 per the supplier's instructions. Antagonist compounds are added to the cultures on Day 2 followed by addition of a TLR8 agonist approximately 2 hours later. Cultures are incubated overnight and SEAP activity is measured on Day 3.
In a typical assay, 50,000 HEK239 hTLR8 cells are seeded per culture well and transiently transfected with the SEAP reporter gene. Antagonists are added to cultures in culture medium and […] DMSO over a concentration range of 0.1 nanomolar to 10 micromolar. TLR8 agonists are added to cultures 2 hours later at a fixed concentration (e.g., 1 micromolar or 10 micromolar of Compound A) and cultures are then incubated for 16-24 hrs at 37° C. in a humidified CO incubator. Antagonists are also evaluated for activity in the absence of agonist.
TLR8 antagonist activity at 25 μM is presented in Table 2, where + denotes a % inhibition of 20-39, ++ denotes a % inhibition of 40-59, +++ denotes a % inhibition of 60-79 and ++++ denotes a % inhibition of 80-99. In some cases, antagonist activity was assessed at lower concentrations, for example, at 8.3, 2.8, or less than 1 μM.
TLR8 antagonist activity was measured in a hTLR8 assay format, measuring IC50 values. Compounds were incubated with hTLR8 reporter cells for two hours, then 1 μM Compound A was added to induce TLR8 overnight. IC50 were then calculated.

[1] = IC50, nM, vs. VTX-378 1 μM, agonist VTX-378 at 1 μM
[2] = IC50, nM, vs. VTX-378 10 μM, agonist VTX-378 at 10 μM
[3] = agonist VTX-378 at 0.5 μM, read-out: IC50, nM, vs. VTX-378 0.5 μM
[4] = hTLR8 reporter cells, 2 h preincubation, then 1 μM Compound A overnight, read-out: IC50

IC50 [1] [nM]	IC50 [2] [nM]	inhibition at 25 µM [%]	SMILES	other results
≥ 10000	≥ 10000	–	CCOC(=O)N1Cc2cc(-c3ccc(C(=O)N4CCCC4)cc3)ccc2N=C(N)C12CC2 [Compound 3020]	–
≥ 10000	≥ 10000	–	CCOC(=O)C1=Cc2cc(-c3ccc(C(=O)N4CCCC4)cc3)ccc2N2CCN=C2C1 [Compound 2966]	–
< 1000	1000 to 10000	–	CC(C)OC(=O)C1=Cc2cc(-c3ccc(C(=O)N4CCCC4)cc3)ccc2N=C(N)C1 [Compound 2984]	–
< 1000	–	–	CCOC(=O)C1=Cc2cc(-c3ccc(C(=O)N4CCCC4)cc3)ccc2N=C(N)C1C (stereo not shown) [Compound 3173]	IC50 [3]: < 1000 nM
–	–	80 to 99	CCCN(CCC)C(=O)C1=Cc2ccc(-c3ccc(C(=O)N4CCCC4)cc3)cc2N=C(NN)C1 [Compound 33, (1E,4E)-2-Hydrazinyl-N,N-dipropyl-8-(4-(pyrrolidine-1-carbonyl)phenyl)-3H-benzo[b]azepine-4-carboxamide]	IC50 [4]: 1000 to 5000 nM
–	–	60 to 79	CCOC(=O)C1=Cc2ccc(-c3ccc(C(=O)N4CCCC4)cc3)cc2N2CCN=C2C1 [Compound 90, (E)-ethyl 9-(4-(pyrrolidine-1-carbonyl)phenyl)-2,4-dihydro-1H-benzo[f]imidazo[1,2-a]azepine-5-carboxylate]	–
–	–	80 to 99	CCOC(=O)C1=Cc2cc(OC)c(-c3ccc(C(=O)N4CCCC4)cc3)cc2N=C(N)C1 [Compound 76, (1E,4E)-ethyl 2-amino-7-methoxy-8-(4-(pyrrolidine-1-carbonyl)phenyl)-3H-benzo[b]azepine-4-carboxylate]	IC50 [4]: ≥ 10000 nM
≥ 10000	≥ 10000	–	CCOC(=O)C1=Cc2cc(-c3ccc(C(=O)N4CCCC4)cc3)ccc2N=C(N(C)C)C1 [Compound 2929]	–
–	–	80 to 99	CCOC(=O)C1=Cc2cc(-c3ccc(C(=O)N4CCCC4)cc3)ccc2N=C(N)C1 [Compound 63, (1E,4E)-Ethyl 2-amino-7-(4-(pyrrolidine-1-carbonyl)phenyl)-3H-benzo[b]azepine-4-carboxylate]	IC50 [4]: < 1000 nM
1000 to 10000	≥ 10000	–	CCOC(=O)C1=Cc2cc(-c3ccc(C(=O)N4CCCC4)cc3)ccc2N=C(NC)C1 [Compound 2922]	–
≥ 10000	≥ 10000	–	CCOC(=O)C1=Cc2cc(-c3ccc(C(=O)N4CCCC4)cc3)ccc2-n2cnnc2C1 [Compound 2976]	–
< 1000	1000 to 10000	–	COC(=O)C1=Cc2cc(-c3ccc(C(=O)N4CCCC4)cc3)ccc2N=C(N)C1 [Compound 2931]	–
–	–	40 to 59	CCCN(CCCO)C(=O)C1=Cc2ccc(-c3ccc(C(=O)N4CCCC4)cc3)cc2N=C(NC)C1 [Compound 46, (1E,4E)-N-(3-Hydroxypropyl)-2-(methylamino)-N-propyl-8-(4-(pyrrolidine-1-carbonyl)phenyl)-3H-benzo[b]azepine-4-carboxamide]	–
≥ 10000	≥ 10000	–	CCOC(=O)C1=Cc2cc(-c3ccc(C(=O)N4CCCC4)cc3)ccc2-n2c(n[nH]c2=O)C1 [Compound 3000]	–
–	–	20 to 39	CCCN(CCCO)C(=O)C1=Cc2ccc(-c3ccc(C(=O)N4CCCC4)cc3)cc2N=C(NCCN(C)C)C1 [Compound 47, (1E,4E)-2-(2-(Dimethylamino)ethylamino)-N-(3-hydroxypropyl)-N-propyl-8-(4-(pyrrolidine-1-carbonyl)phenyl)-3H-benzo[b]azepine-4-carboxamide]	–
≥ 10000	≥ 10000	–	CCOC(=O)C1=Cc2cc(-c3ccc(C(=O)N4CCCC4)cc3)ccc2-n2ccnc2C1 [Compound 2919]	–
–	–	–	CCCN(CCC)C(=O)C1=Cc2cc(OC)c(-c3ccc(C(=O)N(CCC)CCC)cc3)cc2N=C(N)C1 [Compound 12, (1E,4E)-2-Amino-8-(4-(dipropylcarbamoyl)phenyl)-7-methoxy-N,N-dipropyl-3H-benzo[b]azepine-4-carboxamide]	IC50 [4]: 1000 to 5000 nM
–	–	40 to 59	CCCN(CCC)C(=O)C1=Cc2cc(OC)ccc2N=C(N)C1 [Compound 70, (1E,4E)-2-amino-7-methoxy-N,N-dipropyl-3H-benzo[b]azepine-4-carboxamide]	–
< 1000	≥ 10000	–	CN(C)C(=O)C1=Cc2cc(-c3ccc(C(=O)N4CCCC4)cc3)ccc2N=C(N)C1 [Compound 2986]	–
–	–	60 to 79	CCOC(=O)C1=Cc2cc(OCc3ccccn3)ccc2N=C(N)C1 [Compound 74, (1E,4E)-ethyl 2-amino-7-(pyridin-2-ylmethoxy)-3H-benzo[b]azepine-4-carboxylate]	IC50 [4]: 1000 to 5000 nM
≥ 10000	≥ 10000	–	CCOC(=O)N1CC(N)=Nc2ccc(-c3ccc(C(=O)N4CCCC4)cc3)cc2C1 [Compound 2954]	–
–	–	60 to 79	CCCN(CCC)C(=O)C1=Cc2cc(OC)c(-c3ccc(C(=O)N4CCCC4)cc3)cc2N=C(N)C1 [Compound 65, (1E,4E)-2-Amino-7-methoxy-N,N-dipropyl-8-(4-(pyrrolidine-1-carbonyl)phenyl)-3H-benzo[b]azepine-4-carboxamide]	IC50 [4]: 5000 to 10000 nM
≥ 10000	≥ 10000	–	CCOC(=O)C1=Cc2cc(-c3ccc(C(=O)N4CCCC4)cc3)ccc2N=C(NN)C1 [Compound 2962]	–
1000 to 10000	≥ 10000	–	CCOC(=O)C1=Cc2cc(-c3ccc(C(=O)N4CCCC4)cc3)ccc2N=C(NN(C)C)C1 [Compound 2926]	–
–	–	20 to 39	CCCN(CCCO)C(=O)C1=Cc2cc(OC)c(-c3ccc(C(=O)N4CCCC4)cc3)cc2N=C(N)C1 [Compound 25, (1E,4E)-2-Amino-N-(3-hydroxypropyl)-7-methoxy-N-propyl-8-(4-(pyrrolidine-1-carbonyl)phenyl)-3H-benzo[b]azepine-4-carboxamide]	–
–	–	20 to 39	CCOC(=O)N1Cc2ccc(-c3ccc(C(=O)N4CCCC4)cc3)cc2N=C(N)C12CC2 [Compound 88, (E)-Ethyl 2-amino-8-(4-(pyrrolidine-1-carbonyl)phenyl)spiro[benzo[e][1,4]diazepine-3,1′-cyclopropane]-4(5H)-carboxylate]	IC50 [4]: 5000 to 10000 nM

SMILES	IC50 [1] [nM]	IC50 [2] [nM]	inhibition at 25 µM [%]	other results
CCOC(=O)C1=Cc2cc(-c3ccc(C(=O)N4CCCC4)cc3)ccc2N=C(N)C12CC2 [Compound 3260]	< 1000	–	–	IC50 (IC50, nM, vs. 3M002 10 μM, agonist 3M002 at 10 μM): < 1000 nM; IC50 [3]: < 1000 nM
